This test has as its system P. aeruginosa PAO1. Put plainly: Invasion assay of P. aeruginosa PAO1 into H1299 cells. It is filed as cell-based, Pseudomonas aeruginosa. As for the experimental part: P. aeruginosa is able to invade non‐phagocytic cells via a lipid zipper mechanism.[10] Binding of LecA to the glycosphingolipid Gb3 followed by LecA‐induced receptor clustering plays a crucial role in this process. The LecA ligand 4‐nitrophenyl α‐ D‐galactopyranoside (PNPG) has been previously shown to interfere with these events at a high concentration of 10 mM leading to a reduction of bacterial invasiveness to 30–60 % as compared to untreated bacteria (100 % invasiveness).[10, 31] For invasion assays, H1299 cells were incubated with P. aeruginosa in presence and absence of LecA inhibitors, followed by killing of extracellular bacteria with the antibiotic amikacin. Then, all intracellular bacteria were released by lysis of the human cells and viable bacteria were quantified by plating. To assess the impact of LecA inhibitors on the invasiveness, the influence of the divalent LecA inhibitor L2 on bacterial invasion into host cells was evaluated and compared to PNPG. […] In contrast, the divalent LecA ligand L2 achieved an invasion decrease to 44 % already at 100 μM (Figure 5c). L2 was thus able to reach a similar reduction of invasion at a 100‐fold lower concentration than the one needed for PNPG. […]
lectin-inhibitor solution for 24 h at 37 °C. In order to depict exactly the same position for each wound, marker lines were drawn on the bottom of the 12-well plates for each well. The samples were imaged with an EVOS microscope (PEQLAB by VWR Life Sciences, Avantor […]
Excel. […]
A chromosomally GFP-tagged Gentamicin-resistant Pseudomonas aeruginosa PAO1 strain was cultured (LB medium supplemented with 60 µg/mL Gentamicin, 37 °C, 180 rpm, 16 h) and invasion assays were performed in analogy to Eierhoff et al..[13] 1.5 x 10^4 H1299 cells per well were seeded one day prior to the invasion assay in a 96-well plate with flat bottom. An […]
overnight culture of P. aeruginosa was centrifuged for 5 min at 3000 x g, washed with PBS (- /-) and re-suspended in RPMI 1640 medium. The newly synthesized divalent LecA ligand L2 was compared to 4-nitrophenyl α-D-galactopyranoside (PNPG; Sigma-Aldrich, Chemie GmbH, Darmstadt, Germany). […]
Subsequently, cells were washed three times with DPBS and lysed by incubation with 0.25% (v/v) Triton X-100 (Carl Roth GmbH & Co. KG, Karlsruhe, Germany) for 5 min at 37 °C and 180 rpm. […] Bacterial colonies were counted the next day. […] The invasion rate was calculated as the number of intracellularly localized bacteria divided by the total number of non-treated bacteria, bacteria that were not treated with any ligands and neither amikacin, thus the number of P. aeruginosa that successfully invaded or stayed attached to the host cells. Experiments were repeated independently at least four times (N ≥ 4) and evaluated […]

The record followed here is PMC10107299, “Neutralizing the Impact of the Virulence Factor LecA from Pseudomonas aeruginosa on Human Cells with New Glycomimetic Inhibitors” (Angewandte Chemie (International Ed. in English), 2023).

As to `O=C(CCc1ccc(O[C@@H]2O[C@H](CO)[C@H](O)[C@H](O)[C@H]2O)cc1)Nc1ccc(CCc2ccc(NC(=O)CCc3ccc(O[C@@H]4O[C@H](CO)[C@H](O)[C@H](O)[C@H]4O)cc3)cc2S(=O)(=O)O)c(S(=O)(=O)O)c1` [Compound L2], the “Lower concentration than PNPG for similar reduction of invasion” value (100 μM L2 vs 10 mM PNPG) came to 100 fold. Under “100 μM inhibitor, PAO1 into H1299 cells, N≥4”, the “Bacterial invasiveness (untreated bacteria 100 %)” value is listed as 44%.
